Data on nine molecules can be found in US20250073255A1, “USE OF FA-TYPE LIPID COMPOUNDS IN PREPARATION OF NUCLEIC ACID DELIVERY REAGENT AND RELATED PRODUCT” (BEIJING BAISHIKANG PHARMACEUTICAL TECHNOLOGY (BSJPHARMA) …, priority 2021, published 2025).

For the assay, the system named is C57BL/6 male mice. The assay can be described thus: In vivo delivery study of lipid nucleic acid mixture (oral gavage, RT-qPCR of PGY-sRNA-26 in tissues). Set-up: species or system mouse. The note with it: for overall delivery efficacy: delivering nucleic acids into each tissue and blood tested: 100 μg lipid:10 nmol PGY-sRNA-26, all tissues and blood tested; for oral delivery of single-stranded sRNA nucleic acids into mouse heart tissue: vs free uptake group; for oral delivery of single-stranded sRNA nucleic acids into mouse intestinal tissue: intestine. As for the experimental part: 10 nmol of small RNA (as shown in Table 2) was dissolved in 400 μl of DEPC-treated water in a glass tube, 10 μl of the corresponding lipid stock solution was added such that the lipid mass in the system was 100 μg. The mixture was mixed thoroughly, heated in a 90° C. water bath for 15 minutes, and then cooled naturally to obtain the lipid nucleic acid mixture of lipid and small RNA.
C57BL/6 male mice, approximately 6 weeks old, weighing […], were obtained from Beijing Vital River Laboratory Animal Technology Co., Ltd. The mice were housed in the SPF-grade animal facility at the Animal Center of the Institute of Basic Medical Sciences, Chinese Academy of Medical Sciences. The mice were fasted for 12 hours before gavage administration.
The lipid nucleic acid mixture was prepared following the method described in Example 2. The resultant lipid nucleic acid mixture was orally administered to each mouse at a dose of 100 μg lipid:10 nmol single-stranded 3-methylated small RNA PGY-sRNA-26.
• 1) Blank group (n=4): mice were administered with 500 μl saline by gavage, this group served as a blank control; • 2) Free uptake group (n=4): mice were directly administered with small RNA PGY-sRNA-26 solution (10 nmol/mouse, 500 l) by gavage, this group served as a negative control; • 3) Lipid-treated group (n=4): mice were administered with 500 μl lipid nucleic acid mixture prepared in step 2 by gavage.
After 12 hours of gavage administration, 500 μl blood from the eyeball of each mouse was sampled, added to 1.5 ml Trizol Reagent LS (purchased from Invitrogen), thoroughly mixed for lysis. 3 ml of Trizol Reagent LSwas added to tissue samples and homogenized for complete lysis, wherein the sampled tissues include heart, liver, spleen, lung, kidney, stomach, intestine, brain, blood, femur, pancreas. RNAwas extracted from 1 ml of the blood or the tissue lysate following the steps below: • Centrifuge at 4° C., 12,000 rpm for 5 min, discard the precipitate, transfer Trizol to a new centrifuge tube; • Add chloroform at 200 μL chloroform/mL Trizol, shake well, stand at room temperature for 5 min; • Centrifuge at 4° C., 12,000 rpm for 15 min; • Take the upper aqueous phase to another centrifuge tube, add isopropanol at 0.4 mL isopropanol/mL Trizol, mix well, and stand at low temperature for 10-20 min; • Centrifuge at 4° C., 12,000 rpm for 15 min, discard the supernatant, RNA precipitated at the bottom of the tube; • Add 1 mL of 75% ethanol, gently shake the centrifuge tube, suspend the precipitate; • Centrifuge at 4° C., 12,000 rpm for 15 min, discard the supernatant, add 1 mL of 75% ethanol, gently shake the centrifuge tube, suspend the precipitate; • Centrifuge at 4° C., 12,000 rpm for 15 min, discard the supernatant, air-dry at room temperature, dissolve RNA samples in 50 μL RNase-free H2O, measure OD value to quantify RNA concentration. 3.3 Reverse Transcription of sRNA to cDNA:
sRNA was reverse transcribed to cDNA using the High-Capacity cDNA Reverse Transcription Kit (Applied Biosystems, cat. no. 4368813) by stem-loop method (see, e.g., “Real-time quantification of microRNAs by stem-loop RT-PCR, Nucleic Acids Res. 2005 Nov. 27; 33(20):e179”, incorporated herein by reference). The reverse transcription system is as follows: Template RNA (200 ng/μL) 10 μL, 10×RT Buffer 2.0 μL, 25×dNTP Mix (100 mM) 0.8 μL, U6 RT stem-loop primer (10 μM) 2.0 μL, PGY-sRNA-26 RT stem-loop primer (10 μM) 2.0 μL, MultiScribe™ Reverse Transcriptase (50 U/μL) 1.0 μL, RNAse Inhibitor (40 U/μL) 1.0 μL, nuclease-free H2O 1.2 μL. After transient centrifugation, the reverse transcription system was placed in a PCR machine with the following reaction conditions: (1) 25° C., 10 min; (2) 37° C., 120 min; (3) 85° C., 5 min; (4) 4° C., stop reaction. After the reaction, add 20 μL RNAse-free ddH2O, adjust the final volume to 40 μL. […]
(In qPCR the cycle at which signal appears reflects the starting amount.)

Where [1] appears, read: 100 μg lipid:10 nmol PGY-sRNA-26, sampled after 12 hours.

With `CC/C=C/CC1C(=O)CCC1CC(=O)OC` (stereo not drawn) [Lipid 501], the “overall delivery efficacy: delivering nucleic acids into each tissue and blood tested” value is “best delivery efficacy”. Further, under setting [1], the “oral delivery of single-stranded sRNA nucleic acids into mouse blood” value is “can effectively orally deliver”, the “oral delivery of single-stranded sRNA nucleic acids into mouse brain tissue” value is reported as “can effectively orally deliver”, the “oral delivery of single-stranded sRNA nucleic acids into mouse heart tissue” value was “can effectively orally deliver” and the “oral delivery of single-stranded sRNA nucleic acids into mouse intestinal tissue” value is on record as “can effectively orally deliver”. In addition, under setting [1], the “oral delivery of single-stranded sRNA nucleic acids into mouse kidney tissue” value is on record as “can effectively orally deliver”, the “oral delivery of single-stranded sRNA nucleic acids into mouse liver tissue” value is “can effectively orally deliver”, the “oral delivery of single-stranded sRNA nucleic acids into mouse lung tissue” value is given as “can effectively orally deliver” and the “oral delivery of single-stranded sRNA nucleic acids into mouse spleen tissue” value is “can effectively orally deliver”. Moreover, the “oral delivery of single-stranded sRNA nucleic acids into mouse stomach tissue” value under setting [1] was “can effectively orally deliver”.

As for `CC(=O)CCC=C(C)CCC=C(C)C` [Lipid 502, 6,10-dimethylundeca-5,9-dien-2-one], under setting [1], the “oral delivery of single-stranded sRNA nucleic acids into mouse blood” value is given as “can effectively orally deliver”, the “oral delivery of single-stranded sRNA nucleic acids into mouse brain tissue” value is “can effectively orally deliver”, the “oral delivery of single-stranded sRNA nucleic acids into mouse heart tissue” value was “can effectively orally deliver” and the “oral delivery of single-stranded sRNA nucleic acids into mouse intestinal tissue” value is given as “can effectively orally deliver”. Also, under setting [1], the “oral delivery of single-stranded sRNA nucleic acids into mouse kidney tissue” value was “can effectively orally deliver”, the “oral delivery of single-stranded sRNA nucleic acids into mouse spleen tissue” value is reported as “can effectively orally deliver” and the “oral delivery of single-stranded sRNA nucleic acids into mouse stomach tissue” value is on record as “can effectively orally deliver”.

`CC1(O)CCCC1` [Lipid 503]: under setting [1], the “oral delivery of single-stranded sRNA nucleic acids into mouse blood” value is “can effectively orally deliver”, the “oral delivery of single-stranded sRNA nucleic acids into mouse brain tissue” value was “can effectively orally deliver”, the “oral delivery of single-stranded sRNA nucleic acids into mouse intestinal tissue” value is recorded as “can effectively orally deliver” and the “oral delivery of single-stranded sRNA nucleic acids into mouse kidney tissue” value is listed as “can effectively orally deliver”. Besides, under setting [1], the “oral delivery of single-stranded sRNA nucleic acids into mouse liver tissue” value is recorded as “can effectively orally deliver”, the “oral delivery of single-stranded sRNA nucleic acids into mouse lung tissue” value is “can effectively orally deliver”, the “oral delivery of single-stranded sRNA nucleic acids into mouse spleen tissue” value is listed as “can effectively orally deliver” and the “oral delivery of single-stranded sRNA nucleic acids into mouse stomach tissue” value was “can effectively orally deliver”.

Take `CCCCCCCCCCCC(C)O` (stereo not drawn) [Lipid 505, tridecan-2-ol]: under setting [1], the “oral delivery of single-stranded sRNA nucleic acids into mouse blood” value is “can effectively orally deliver”, the “oral delivery of single-stranded sRNA nucleic acids into mouse brain tissue” value is on record as “can effectively orally deliver”, the “oral delivery of single-stranded sRNA nucleic acids into mouse liver tissue” value is listed as “can effectively orally deliver” and the “oral delivery of single-stranded sRNA nucleic acids into mouse stomach tissue” value is reported as “can effectively orally deliver”.

As for `CCCCCCCCCCCCCCCCCCCCCCC(=O)NCCO` [Lipid 519, N-(2-hydroxyethyl)tricosanamide], under setting [1], the “oral delivery of single-stranded sRNA nucleic acids into mouse heart tissue” value is recorded as “can effectively orally deliver”, the “oral delivery of single-stranded sRNA nucleic acids into mouse kidney tissue” value is “can effectively orally deliver”, the “oral delivery of single-stranded sRNA nucleic acids into mouse lung tissue” value was “can effectively orally deliver” and the “oral delivery of single-stranded sRNA nucleic acids into mouse stomach tissue” value is “can effectively orally deliver”.

Consider `CCCCC/C=C\C/C=C\C/C=C\C/C=C\CCCCCC(=O)O` [Lipid 520, (7Z,10Z,13Z,16Z)-docosa-7,10,13,16-tetraenoic acid], for which, under setting [1], the “oral delivery of single-stranded sRNA nucleic acids into mouse brain tissue” value is reported as “can effectively orally deliver”, the “oral delivery of single-stranded sRNA nucleic acids into mouse heart tissue” value is recorded as “can effectively orally deliver”, the “oral delivery of single-stranded sRNA nucleic acids into mouse liver tissue” value is listed as “can effectively orally deliver” and the “oral delivery of single-stranded sRNA nucleic acids into mouse lung tissue” value is “can effectively orally deliver”. For the same molecule, under setting [1], the “oral delivery of single-stranded sRNA nucleic acids into mouse spleen tissue” value is recorded as “can effectively orally deliver”.

Regarding `NCCCCCC(=O)NCCCCCC(=O)O` [Lipid 522, 6-(6-aminohexanoylamino)hexanoic acid], under setting [1], the “oral delivery of single-stranded sRNA nucleic acids into mouse blood” value is “can effectively orally deliver”, the “oral delivery of single-stranded sRNA nucleic acids into mouse heart tissue” value is recorded as “can effectively orally deliver”, the “oral delivery of single-stranded sRNA nucleic acids into mouse intestinal tissue” value is listed as “can effectively orally deliver” and the “oral delivery of single-stranded sRNA nucleic acids into mouse lung tissue” value is on record as “can effectively orally deliver”. For the same molecule, under setting [1], the “oral delivery of single-stranded sRNA nucleic acids into mouse spleen tissue” value is recorded as “can effectively orally deliver” and the “oral delivery of single-stranded sRNA nucleic acids into mouse stomach tissue” value is “can effectively orally deliver”.

Turning to `CCCCCC(=O)/C=C/C=O` [Lipid 525, (E)-4-oxonon-2-enal], under setting [1], the “oral delivery of single-stranded sRNA nucleic acids into mouse intestinal tissue” value is “can effectively orally deliver”, the “oral delivery of single-stranded sRNA nucleic acids into mouse kidney tissue” value is listed as “can effectively orally deliver”, the “oral delivery of single-stranded sRNA nucleic acids into mouse lung tissue” value was “can effectively orally deliver” and the “oral delivery of single-stranded sRNA nucleic acids into mouse spleen tissue” value is “can effectively orally deliver”. Also, the “oral delivery of single-stranded sRNA nucleic acids into mouse stomach tissue” value under setting [1] was “can effectively orally deliver”.

In the case of `CC/C=C/CCO` [Lipid 526], the “overall delivery efficacy: delivering nucleic acids into each tissue and blood tested” value is recorded as “best delivery efficacy”. Besides, under setting [1], the “oral delivery of single-stranded sRNA nucleic acids into mouse blood” value is on record as “can effectively orally deliver”, the “oral delivery of single-stranded sRNA nucleic acids into mouse brain tissue” value is on record as “can effectively orally deliver”, the “oral delivery of single-stranded sRNA nucleic acids into mouse heart tissue” value is given as “can effectively orally deliver” and the “oral delivery of single-stranded sRNA nucleic acids into mouse intestinal tissue” value is on record as “can effectively orally deliver”. Under setting [1], the “oral delivery of single-stranded sRNA nucleic acids into mouse kidney tissue” value is “can effectively orally deliver”, the “oral delivery of single-stranded sRNA nucleic acids into mouse liver tissue” value is recorded as “can effectively orally deliver”, the “oral delivery of single-stranded sRNA nucleic acids into mouse lung tissue” value was “can effectively orally deliver” and the “oral delivery of single-stranded sRNA nucleic acids into mouse spleen tissue” value is “can effectively orally deliver”. Moreover, under setting [1], the “oral delivery of single-stranded sRNA nucleic acids into mouse stomach tissue” value is listed as “can effectively orally deliver”. Moreover, the “oral delivery of single-stranded sRNA nucleic acids into mouse femur” value (100 μg lipid:10 nmol PGY-sRNA-26, sampled after 12 hours, femur) is “can effectively orally deliver”.
